Reference: US20050233405A1, “Inhibitors of caspase-3-mediated cleavage of essential ventricular myosin light chain” (ProCorde GmbH, priority 2002, published 2005)
*: point of attachment. pNA = O=[N+]([O-])c1ccc(N*)cc1; AMC = Cc1cc(=O)oc2cc(N*)ccc12

Tests used:
other caspases = assay: Ac-DFVE-AMC cleavage by other caspases; format: biochemical; settings: physiological substrate concentrations
From the text: (§1) FIG. 8: Effect of different proteases—other caspases and calpain—on cleavage of the peptide substrate Ac-DFVE-AMC. The 1/KM-value for caspase-3 was normalized to 1, and 1/KM-values of other caspases/proteases are shown in relation to that value. […] The functional proteolytic activity of all proteases used was confirmed with the typical peptide substrate of each protease.
(§2) As p35 inhibits all effector caspases (subtypes 1,3,6,7,8 and 10; e.g., Zhou et al., Biochemistry 1998; 37:10757), our concern was whether the observed beneficial effects of p35 in heart failure were really due to inhibition of caspase-3 and of the structurally almost identical caspase-7. Especially, we sought to exclude that the decrease in vMLC1 cleavage in the presence of p35 was due to predominant inhibition of a different caspase, and to exclude that the cleavage of vMLC1 was induced by caspase-3 only indirectly acting via other effector caspases. Therefore, we tested all these enzymes for their capacity to cleave Ac-DFVE-AMC. […] However, the highly homologous caspase-7 cleaved the new substrate DFVE with almost 1 log scale lower affinity compared to caspase-3.

calpain-I = molecular target: T1, calpain-I (Homo sapiens, UniProt P07384); assay: Ac-DFVE-AMC cleavage by calpain-I; format: biochemical; settings: physiological substrate concentrations
T1 sequence (P07384 1-714): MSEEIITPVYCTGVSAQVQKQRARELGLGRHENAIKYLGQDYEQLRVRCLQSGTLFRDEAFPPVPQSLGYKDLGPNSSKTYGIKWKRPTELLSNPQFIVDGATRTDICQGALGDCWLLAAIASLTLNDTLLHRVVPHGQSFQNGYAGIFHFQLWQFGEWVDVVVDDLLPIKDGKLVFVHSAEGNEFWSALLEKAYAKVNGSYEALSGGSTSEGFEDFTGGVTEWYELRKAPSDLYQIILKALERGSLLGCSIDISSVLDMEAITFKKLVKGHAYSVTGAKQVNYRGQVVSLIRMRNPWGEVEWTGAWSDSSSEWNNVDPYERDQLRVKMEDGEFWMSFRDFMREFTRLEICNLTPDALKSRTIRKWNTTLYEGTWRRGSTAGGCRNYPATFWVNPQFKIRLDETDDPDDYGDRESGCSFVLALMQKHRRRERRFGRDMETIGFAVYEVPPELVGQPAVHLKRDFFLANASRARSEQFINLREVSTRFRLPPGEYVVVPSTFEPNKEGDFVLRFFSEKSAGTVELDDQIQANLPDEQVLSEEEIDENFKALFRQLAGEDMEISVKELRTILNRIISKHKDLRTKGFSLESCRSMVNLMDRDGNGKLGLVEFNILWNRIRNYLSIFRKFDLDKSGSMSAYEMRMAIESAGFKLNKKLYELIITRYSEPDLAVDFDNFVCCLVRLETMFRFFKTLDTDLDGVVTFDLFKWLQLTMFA
T1 sequence (P04632 1-268 partner): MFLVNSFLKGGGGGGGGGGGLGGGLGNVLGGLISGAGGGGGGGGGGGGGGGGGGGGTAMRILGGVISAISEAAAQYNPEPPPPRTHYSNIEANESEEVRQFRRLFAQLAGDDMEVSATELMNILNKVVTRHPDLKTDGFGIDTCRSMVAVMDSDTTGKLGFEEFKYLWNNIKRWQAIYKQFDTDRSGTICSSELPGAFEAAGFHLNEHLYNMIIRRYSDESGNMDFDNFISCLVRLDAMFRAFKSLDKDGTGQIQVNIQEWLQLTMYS
From the text: as §1, §2

caspase-7 = molecular target: T2, caspase-7 (Homo sapiens, UniProt P55210); assay: Fluorimetric peptide substrate cleavage assay, caspase-7; format: biochemical; settings: for cleavage of peptide substrate by caspase-7: fluorimetric in vitro assay
T2 sequence (P55210 24-198 limits assumed): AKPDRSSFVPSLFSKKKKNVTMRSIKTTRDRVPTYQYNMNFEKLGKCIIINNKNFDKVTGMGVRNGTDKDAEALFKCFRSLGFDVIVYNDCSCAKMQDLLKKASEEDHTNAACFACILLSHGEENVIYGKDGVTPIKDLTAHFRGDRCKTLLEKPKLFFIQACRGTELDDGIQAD
T2 sequence (P55210 207-303 limits assumed): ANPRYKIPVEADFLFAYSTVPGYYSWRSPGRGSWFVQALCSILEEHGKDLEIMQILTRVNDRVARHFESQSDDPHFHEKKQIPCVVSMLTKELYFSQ
From the text: as §1
To this end, fluorimetric in vitro assays using the specific cleavage sites coupled to indicator dyes were established. Caspase-3 and the structurally almost identical caspase-7 (Wei et al., 2000) cleaved both substrates, DEVD and DFVE, with a highly reproducible Michaelis-Menten kinetic. […] We measured a KM-value for DEVD which compared well to existing literature data (Table 1), whereas the KM-value for DFVE was in the range of some other rare substrates of caspase-3 (Table 1). This differential substrate affinity allows to screen for specific inhibitors of vMLC1 cleavage, which would, however, not affect the cleavage of most other known substrates of caspase-3 and 7.
as §2

[1] = molecular target: T3, recombinant human caspase-3 (CPP32) (Homo sapiens, UniProt P42574); assay: Fluorimetric peptide substrate cleavage assay, caspase-3; format: biochemical; settings: fluorimetric in vitro assay
T3 construct: purified, active recombinant human caspase-3 (CPP32); purchased BD Biosciences Pharmingen, Heidelberg, Germany
T3 sequence (P42574 29-175 limits assumed): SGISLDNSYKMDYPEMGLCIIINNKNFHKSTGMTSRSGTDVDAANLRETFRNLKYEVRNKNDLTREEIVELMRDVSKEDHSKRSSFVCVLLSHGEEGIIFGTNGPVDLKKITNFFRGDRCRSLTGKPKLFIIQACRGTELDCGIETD
T3 sequence (P42574 176-277 limits assumed): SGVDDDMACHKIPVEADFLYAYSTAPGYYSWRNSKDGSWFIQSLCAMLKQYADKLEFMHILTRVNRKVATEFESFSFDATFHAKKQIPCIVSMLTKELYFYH
Experimental: The rate of caspase-3 enzyme activity could be measured by enzymatic cleavage and release of AMC from the Ac-DEVD-AMC caspase substrate (Biosyntan, Berlin, Germany). This parameter was measured as emission at 460 nm upon excitation at 380 nm using U.V. spectrofluorometry.
Ac-DFVE-AMC was synthesized by Biosyntan, Berlin, Germany, with a purity of 93.5%. The peptide lyophilised as trifluoracetic acid salt was reconstituted in DMSO to 100 mM. 5 μg of purified, active recombinant human caspase-3 (CPP32) from BD Biosciences Pharmingen, Heidelberg, Germany, were diluted in 100 μl 50 mM Tris, pH 8.0, with 100 mM NaCl, 50 mM imidazole.
The reaction buffer contained 20 mM HEPES, 100 mM NaCl, 10 mM DTT, 1 mM EDTA, 0.1 % (w/v) CHAPS, 10% sucrose, pH 7.2 and the indicated concentrations of Ac-DFVE-AMC. Caspase-3 was added to reaction mixture at a final concentration of 3 nM.
After preincubation for 10 min at 37° C., the released fluorogenic AMC was monitored every second minute for 20 min in a spectrofluorometer at an excitation wavelength of 380 nm and an emission wavelength of 460 nm.
Initial velocities and substrate concentrations were fit by non linear regression to the Michaelis-Menten equation. Lineweaver-Burk plots were calculated.

caspase-3 = molecular target: T4, caspase-3 (Homo sapiens, UniProt P42574); settings: chromogenic peptide substrates; J Biol Chem. 1997 Apr 11; 272(15):9677-82; cited from earlier work
T4 sequence (P42574 29-175 limits assumed): T3 sequence (P42574 29-175 limits assumed)
T4 sequence (P42574 176-277 limits assumed): T3 sequence (P42574 176-277 limits assumed)

[2] = tested on: caspase-3 activation in failing myocardium; settings: rabbit CHF, rapid ventricular pacing; Laugwitz et al., 2001; cited from earlier work

Molecule: Ac-DFVE-{AMC}
- cleavage of substrate by other caspases (other caspases): no cleavage was detectable
- cleavage of substrate by calpain-I (calpain-I): no cleavage was detectable
- cleavage of peptide substrate by caspase-7 (caspase-7): can specifically cleave
- affinity of caspase-7 for the substrate, lower compared to caspase-3 (caspase-7; relative to caspase-3): ~1 log scale
- cleavage of peptide substrate by caspase-3 [1]: can specifically cleave

Molecule: Ac-VQVD-pNA
- Km (caspase-3): 510 µM

Molecule: Ac-DQMD-pNA
- Km (caspase-3): 44 µM

Molecule: Ac-DEVD-AMC
- cleavage of peptide substrate by caspase-7 (caspase-7): cleaved
- cleavage of peptide substrate by caspase-3 [1]: cleaved

Molecule: Ac-YEVD-pNA
- Km (caspase-3): 370 µM

Molecule: Ac-VDVAD-pNA
- Km (caspase-3): 67 µM

Molecule: Ac-VEID-pNA
- Km (caspase-3): 250 µM

Molecule: Ac-DEVD-pNA
- Km (caspase-3): 11 µM

B1: p35: potent caspase inhibitor p35, given by adenovirus-mediated gene delivery (protein, UniProt P08160 1-299, looked up)
Early 35 kDa protein: MCVIFPVEIDVSQTIIRDCQVDKQTRELVYINKIMNTQLTKPVLMMFNISGPIRSVTRKNNNLRDRIKSKVDEQFDQLERDYSDQMDGFHDSIKYFKDEHYSVSCQNGSVLKSKFAKILKSHDYTDKKSIEAYEKYCLPKLVDERNDYYVAVCVLKPGFENGSNQVLSFEYNPIGNKVIVPFAHEINDTGLYEYDVVAYVDSVQFDGEQFEEFVQSLILPSSFKNSEKVLYYNEASKNKSMIYKALEFTTESSWGKSEKYNWKIFCNGFIYDKKSKVLYVKLHNVTSALNKNVILNTIK
modifications: adenovirus-delivered
- effect of in vivo transcoronary gene delivery in failing myocardium [2]: positive impact on sarcomeric organization and contractile performance
